Source: patent US11547681B2, “N-acylethanolamide derivatives and uses thereof” (ELIEM THERAPEUTICS, INC., priority 2016, dated 2023)
Like-named read-outs stand apart in the source and are kept apart here.

Experiment: Simulated intestinal fluid (SIF) stability in the presence of various enzymes
Format: in vitro ADME
Conditions: 1 μM
Experimental: (§1) Studies were carried out in simulated intestinal fluid in the presence of various enzymes. Simulated intestinal fluid was prepared by dissolving 6.8 g of monobasic potassium phosphate in 1.0 L of water. Aliquots of this solution were taken and the pH was adjusted to 6.8. Individual enzymes were then spiked into aliquots for each experiment. A DMSO stock was first prepared for the test article. Aliquots of the DMSO solution were dosed into 700 μL of matrix, which had been pre-warmed to 37° C., at a final test article concentration of 1 μM. […] Samples were stored at 4° C. until the end of the experiment. After the final time point was sampled, the plate was mixed and then centrifuged at 3,000 rpm for 10 minutes. Calibration standards were prepared in matched matrix. […] Analytical conditions are outlined in Appendix 8-1.
as §1, with “10-1.” for “8-1.”
Studies were carried out in simulated intestinal fluid in the presence of various enzymes. Simulated intestinal fluid was prepared by dissolving 6.8 g of monobasic potassium phosphate in 1.0 L of water. Aliquots of this solution were taken and the pH was adjusted to 6.8. Individual enzymes were then spiked into aliquots for each experiment. A DMSO stock was first prepared for test article. Aliquots of the DMSO solution were dosed into 700 μL of matrix, which had been pre-warmed to 37° C., at a final test article concentration of 1 μM. […] Samples were stored at 4° C. until the end of experiment. After final time point was sampled, the plate was mixed and then centrifuged at 3,000 rpm for 10 minutes. Calibration standards were prepared in matched matrix. […] Analytical conditions are outlined in Appendix 13-1.
as §1, with “17-1.” for “8-1.”

[1] = SIF + Carboxypeptidase A, 0 min
[2] = SIF + Carboxypeptidase A, 15 min
[3] = SIF + Carboxypeptidase A, 30 min
[4] = SIF + Carboxypeptidase A, 60 min
[5] = SIF + Carboxypeptidase A, 120 min
[6] = SIF + Carboxypeptidase B, 0 min
[7] = SIF + Carboxypeptidase B, 15 min
[8] = SIF + Carboxypeptidase B, 30 min
[9] = SIF + Carboxypeptidase B, 60 min
[10] = SIF + Carboxypeptidase B, 120 min
[11] = simulated intestinal fluid with carboxypeptidase A, pH 6.8, SIF + Carboxypeptidase A, read-out: Half-life
[12] = simulated intestinal fluid with carboxypeptidase B, pH 6.8, SIF + Carboxypeptidase B, read-out: Half-life
[13] = simulated intestinal fluid with chymotrypsin, pH 6.8, SIF + Chymotrypsin, read-out: Half-life
[14] = simulated intestinal fluid with elastase, pH 6.8, SIF + Elastase, read-out: Half-life
[15] = simulated intestinal fluid with pancreatin, pH 6.8, SIF + Pancreatin, read-out: Half-life
[16] = simulated intestinal fluid with trypsin, pH 6.8, SIF + Trypsin, read-out: Half-life

CCCCC/C=C\C/C=C\CCCCCCCC(=O)OCCNC(=O)CCCCCCCCCCCCCCC [Compound I-6]
% Remaining of Initial (n = 1) [1]: 100%
% Remaining of Initial (n = 1) [2]: 77%
% Remaining of Initial (n = 1) [3]: 46%
% Remaining of Initial (n = 1) [4]: 60%
% Remaining of Initial (n = 1) [5]: 56%
% Remaining of Initial (n = 1) [6]: 100%
% Remaining of Initial (n = 1) [7]: 87%
% Remaining of Initial (n = 1) [8]: 93%
% Remaining of Initial (n = 1) [9]: 54%
% Remaining of Initial (n = 1) [10]: 19%
% Remaining of Initial (n = 1) (SIF + Chymotrypsin, 0 min): 100%
% Remaining of Initial (n = 1) (SIF + Chymotrypsin, 15 min): 106%
% Remaining of Initial (n = 1) (SIF + Chymotrypsin, 30 min): 99%
% Remaining of Initial (n = 1) (SIF + Chymotrypsin, 60 min): 51%
% Remaining of Initial (n = 1) (SIF + Chymotrypsin, 120 min): 55%
% Remaining of Initial (n = 1) (SIF + Elastase, 0 min): 100%
% Remaining of Initial (n = 1) (SIF + Elastase, 15 min): 95%
% Remaining of Initial (n = 1) (SIF + Elastase, 30 min): 74%
% Remaining of Initial (n = 1) (SIF + Elastase, 60 min): 64%
% Remaining of Initial (n = 1) (SIF + Elastase, 120 min): 69%
% Remaining of Initial (n = 1) (SIF + Pancreatin, 0 min): 100%
% Remaining of Initial (n = 1) (SIF + Pancreatin, 15 min): 27%
% Remaining of Initial (n = 1) (SIF + Pancreatin, 30 min): 11%
% Remaining of Initial (n = 1) (SIF + Pancreatin, 60 min): 3.1%
% Remaining of Initial (n = 1) (SIF + Pancreatin, 120 min): 1.7%
% Remaining of Initial (n = 1) (SIF + Trypsin, 0 min): 100%
% Remaining of Initial (n = 1) (SIF + Trypsin, 15 min): 116%
% Remaining of Initial (n = 1) (SIF + Trypsin, 30 min): 87%
% Remaining of Initial (n = 1) (SIF + Trypsin, 60 min): 83%
% Remaining of Initial (n = 1) (SIF + Trypsin, 120 min): 123%
half-life at 1 μM (simulated intestinal fluid with carboxypeptidase A, pH 6.8, SIF + Carboxypeptidase A, outside the sampled time range, read-out: Half-life, calculated (in parentheses)): 134 min
half-life at 1 μM [11]: > 120 min
half-life at 1 μM [12]: 62 min
half-life at 1 μM [13]: 101 min
half-life at 1 μM (simulated intestinal fluid with elastase, pH 6.8, SIF + Elastase, outside the sampled time range, read-out: Half-life, calculated (in parentheses)): 185 min
half-life at 1 μM [14]: > 120 min
half-life at 1 μM [15]: 8.3 min
half-life at 1 μM [16]: > 120 min

CCCCCCCCCCCCCCCC(=O)NCCOC(=O)CCC(=O)OC[C@H]1O[C@@](CO)(O[C@H]2O[C@H](CO)[C@@H](O)[C@H](O)[C@H]2O)[C@@H](O)[C@@H]1O [Compound I-7]
% Remaining of Initial (n = 1) [1]: 100%
% Remaining of Initial (n = 1) [2]: 30%
% Remaining of Initial (n = 1) [3]: 10%
% Remaining of Initial (n = 1) [4]: 4.1%
% Remaining of Initial (n = 1) [5]: 3.9%
% Remaining of Initial (n = 1) [6]: 100%
% Remaining of Initial (n = 1) [7]: 33%
% Remaining of Initial (n = 1) [8]: 14%
% Remaining of Initial (n = 1) [9]: 5.7%
% Remaining of Initial (n = 1) [10]: 2.2%
% Remaining of Initial (n = 1) (SIF + Chymotrypsin, 0 min): 100%
% Remaining of Initial (n = 1) (SIF + Chymotrypsin, 15 min): 42%
% Remaining of Initial (n = 1) (SIF + Chymotrypsin, 30 min): 23%
% Remaining of Initial (n = 1) (SIF + Chymotrypsin, 60 min): 13%
% Remaining of Initial (n = 1) (SIF + Chymotrypsin, 120 min): 15%
% Remaining of Initial (n = 1) (SIF + Elastase, 0 min): 100%
% Remaining of Initial (n = 1) (SIF + Elastase, 15 min): 44%
% Remaining of Initial (n = 1) (SIF + Elastase, 30 min): 14%
% Remaining of Initial (n = 1) (SIF + Elastase, 60 min): 3.8%
% Remaining of Initial (n = 1) (SIF + Elastase, 120 min): 3.5%
% Remaining of Initial (n = 1) (SIF + Pancreatin, 0 min): 100%
% Remaining of Initial (n = 1) (SIF + Pancreatin, 15 min): 40%
% Remaining of Initial (n = 1) (SIF + Pancreatin, 30 min): 19%
% Remaining of Initial (n = 1) (SIF + Pancreatin, 60 min): 6.5%
% Remaining of Initial (n = 1) (SIF + Pancreatin, 120 min): 2.7%
% Remaining of Initial (n = 1) (SIF + Trypsin, 0 min): 100%
% Remaining of Initial (n = 1) (SIF + Trypsin, 15 min): 66%
% Remaining of Initial (n = 1) (SIF + Trypsin, 30 min): 44%
% Remaining of Initial (n = 1) (SIF + Trypsin, 60 min): 38%
% Remaining of Initial (n = 1) (SIF + Trypsin, 120 min): 33%
half-life at 1 μM [11]: 8.8 min
half-life at 1 μM [12]: 10 min
half-life at 1 μM [13]: 14 min
half-life at 1 μM [14]: 12 min
half-life at 1 μM [15]: 12 min
half-life at 1 μM [16]: 50 min
